Here are results for eight compounds from patent US20030232851A1, “Viral treatment” (The Procter & Gamble Company, priority 1999, published 2003).

As a reminder, the MIC is the least concentration at which growth counts as inhibited. As usually defined, the MFC is the lowest tested concentration that kills the fungus rather than only halting it. The IC50 is the concentration that inhibits the measured activity by half. The pIC50 is −log10 of the IC50, conventionally taken in molar units. Broadly, the pEC50 is −log10 of the EC50, conventionally taken in molar units.

Series [1] relates to vero cells. Set-up: unit not given beside the values. The note with it: African green monkey.
Series [2] relates to Curvularia lunata. Briefly: Anti-fungal activity (NCCLS M-27A based), Curvularia lunata. Type of series: cell-based. The following applies: growth inhibited or reduced at least 90%; for MIC: Curvularia lunata. Here is the method:
(§1) It was active against cryptococcus neoformans and curvularai lunata. The cidal activity for the C. neoformans is high enough that it is clear […] against this yeast. This test was conducted using a method based upon NCCLS reference method M-27A published in 1997. Solvent, medium and growth controls were set-up with the tests. Once these were read to validate the test performance, the QC fungi were read to insure they had expected results. These steps validated the test system. DMSO was used as a drug-chemical solvent. […] The 90% cut-off is necessary for azoles, which are static and not cidal. The FMC or cidal level was determined by sub-culturing a sample from each tube showing no growth.

For series [3], the system named is Cryptococcus neoformans. Briefly: Anti-fungal activity (NCCLS M-27A based), Cryptococcus neoformans. Type of series: cell-based. The note with it: for MFC / MIC: Cryptococcus neoformans; for MFC / MFC data: cidal level; for MIC / MIC data: growth inhibited or reduced at least 90%. Here is the method:
as §1

The test system of series [4] is hepatitis B, HEPG22.2.15. Briefly: In vitro virus production test of hepatitis B, DNA copy number. Type of series: cell-based.
The subject of series [5] is HEPG22.2.15. Briefly: Hepatitis B test: toxicity values. Type of series: cell-based.
Series [6] relates to HHV8 cell line, TPA-induced BCBL-1 cells. Briefly: Kaposi's Sarcoma (HHV8) in vitro test, DNA copy number. Type of series: cell-based. Here is the method:
(§2) The DNA copy number and the toxicity value were measured and compared with Cidofovir.

For series [7], the system named is TPA-induced BCBL-1 cells. Briefly: Kaposi's Sarcoma test: toxicity values. Type of series: cell-based. Details: Toxicity Values, samples 1-3 / Toxicity Values, average: scale not given here. Here is the method:
as §2

Series [8] concerns the target T1, HIV-1 protease (Human immunodeficiency virus type 1 group M subtype B, UniProt P04585).
T1 construct: precludes use of the fluorometric HIV-1 protease assay; purchased Bachem
Briefly: Protease inhibition assay (fluorometric). The following applies: for Protease Inhibition, sample reading: sample 1, sample 2, hydrochloride salt. Type of series: biochemical. Here is the method:
Protease inhibition is evaluated using a fluorometric method. Enzyme (Bachem) is diluted to 116 μgm/ml in 50 mM NaOAC, 5 mM DTT, 2 mM EDTA, 10% glycerol (pH 5.0) and stored as 10 μl samples at −20° C., HIV protease substrates I (Molecular Probes) is diluted to a working concentration of 0.32 nmoles/μl. Enzyme (20 μl) and drug (20 μl) are added to each well of a microtiter plate as appropriate. Positive and negative controls are evaluated in parallel. Fluorescence is quantitated on Labsystems Fluroskan II using 355 nm/460 nm at 37° C. at time zero and at 30 minute intervals for 2 hours. In instances where autofluorescence precludes use of the fluorometric HIV-1 protease assay or confirmation of a result is required, an HPLC based protease assay can be employed.

For series [9], the target named is HIV-1 integrase (Human immunodeficiency virus type 1 group M subtype B, UniProt P04585). Briefly: HIV-1 integrase inhibition assay. Set-up: HIV-1 Integrase Inhibition, sample reading / HIV-1 Integrase Inhibition, mean: unit not given here. Type of series: biochemical. The following applies: for HIV-1 Integrase Inhibition, sample reading: sample 1, sample 2, hydrochloride salt. An excerpt: A biochemical integrase assay described by Craigie et at (HIV, vol. 2: A practical Approach) Biochemistry, Molecular Biology and Drug Discovery, Ed. J. Kam 1995) to screen agents for their ability to inhibit HIV-1 integrase. In this system, a kinased oligonucleotide serves as the target of 3′ processing and the subsequent strand transfer reaction. The 3′ processing reaction involves the removal of 2 nucleotides from the 3′ ends of the substrate and this is followed by the strand transfer reaction in which the 3′ ends are joined to the exposed 5′ ends. The 20 μl reaction mixture contains 25 mM MOPS (pH 7.2), […] BSA, 10 mM β-mercaptoethanol, 10% glycerol, 7.5 mM MnCl2, 25 nM (7 ng) substrate (Oligo's Etc., Wilsonville, Oreg.) and 200 nM (128 ng) integrase (NIAID AIDS Research and Reference Reagent Program, Bethesda, Md.). The reaction proceeds at 37° C. for 1-2 hours and is terminated by the addition of 20 μl of sequencing stop solution (JSB Amersham, Arlington Heights, Ill.). The reaction products are visualized by autoradiography following electrophoresis in 15% polyacrylamide 6M Urea gel. The substrate migrates as a 30 mer, the product of 3′ processing migrates as an N-2 band and the strand transfer products migrate more slowly at various sizes larger than the substrate.

pEC50, pIC50: −log10 of the molar value. ≈ marks a conversion by molar mass, not a printed value. Where “and” joins values, the source holds several entries; their conditions need not be identical. Equal entries are not always repeated. Some results are limits rather than exact numbers.

As to `Nc1nc2c(ncn2COCCO)c(=O)[nH]1` [Acyclovir], the TC50 in [1] was above 1.

As for `c1ccc2[nH]c(-c3cscn3)nc2c1` [Thia, thiabendazole], the MIC in [2] is at least 32 µg/mL. Moreover, in series [3], the MFC is above 32 µg/mL and the minimum inhibitory concentration (MIC) amounted to 16 µg/mL (≈ 79.5 µM).

Take `Nc1ccn([C@@H]2CS[C@H](CO)O2)c(=O)n1` [3TC, lamivudine]: the “DNA Copy Number, % virus control” value in series [4] (0.0032 μg/ml) is on record as 97.8%; in series [4] (0.01 μg/ml), 87.8%; in series [4] (0.032 μg/ml), 80.4%; in [4] (0.1 μg/ml) it was 24.2%; in [4] (0.32 μg/ml) it was 13.1%; in series [4] (1 μg/ml) it was 1.4%. The “DNA Copy Number, mean” value in [4] (0.0032 μg/ml) is given as 280.4 per 3 μl; in series [4] (0.01 μg/ml) it was 251.7 per 3 μl; in [4] (0.032 μg/ml), 230.4 per 3 μl; in [4] (0.1 μg/ml) it was 69.4 per 3 μl; in series [4] (0.32 μg/ml), 46.1 per 3 μl; in series [4] (1 μg/ml), 4.0 per 3 μl. For the same compound, the “DNA Copy Number, samples 1-3” value in [4] (0.0032 μg/ml) is 265.4 per 3 μl and 328.0 per 3 μl and 247.9 per 3 μl; in series [4] (0.01 μg/ml), 286.1 per 3 μl and 276.7 per 3 μl; in [4] (0.032 μg/ml), 243.2 per 3 μl and 255.3 per 3 μl; in series [4] (0.1 μg/ml), 73.0 per 3 μl and 74.8 per 3 μl and 60.5 per 3 μl; in series [4] (0.32 μg/ml), 36.7 per 3 μl and 45.1 per 3 μl and 56.5 per 3 μl. Also, the IC50 in [4] (HepG2 2.2.15, first experiment) was determined as 0.089 µg/mL (≈ 0.388 µM); in series [4] (HepG2 2.2.15, replicate experiment), 0.021 µg/mL (≈ 0.0916 µM). In addition, the “Toxicity Values, % cell control” value in [5] (0.0032 μg/ml) was determined as 90.8%; in series [5] (0.01 μg/ml), 84.6%; in [5] (0.032 μg/ml), 94.3%; in series [5] (0.32 μg/ml), 93.6%; in series [5] (1 μg/ml), 106.5%. Moreover, the “Toxicity Values, mean” value in [5] (0.0032 μg/ml) is reported as 1.137; in series [5] (0.01 μg/ml), 1.060; in series [5] (0.032 μg/ml) it was 1.181; in series [5] (0.1 μg/ml), 1.190; in series [5] (0.32 μg/ml), 1.172; in [5] (1 μg/ml), 1.334. Further, the “Toxicity Values, samples 1-3” value is 1.009 and 1.173 and 1.230 in series [5] (0.0032 μg/ml); 1.001 and 1.081 and 1.099 in series [5] (0.01 μg/ml); 1.074 and 1.153 and 1.316 in [5] (0.032 μg/ml); 1.151 and 1.220 and 1.200 in series [5] (0.1 μg/ml); 1.082 and 1.207 and 1.227 in series [5] (0.32 μg/ml); 1.423 and 1.256 and 1.322 in series [5] (1 μg/ml). The TC50 in series [5] (first experiment) and in series [5] (replicate experiment) was above 1 µg/mL in each case.

As to `Nc1ccn(C[C@@H](CO)OCP(=O)(O)O)c(=O)n1` [Cidofovir, reference compound], the “DNA Copy Number, % virus control” value in series [6] (0.08 μM) is 95.3%; in [6] (0.25 μM), 75.0%; in [6] (0.8 μM) it was 57.5%; in [6] (2.5 μM) it was 14.3%; in series [6] (8 μM), 0.0%; in series [6] (25 μM), 0.0%. The “DNA Copy Number, average” value in [6] (0.08 μM) came to 8478.0 per 3 μl; in series [6] (0.25 μM), 6666.9 per 3 μl; in series [6] (0.8 μM), 5108.6 per 3 μl; in series [6] (2.5 μM) it was 1276.9 per 3 μl; in [6] (8 μM) it was 3.0 per 3 μl; in [6] (25 μM), 0.0 per 3 μl. The “DNA Copy Number, samples 1-3” value in [6] (0.08 μM) was 8485.1 per 3 μl and 7948.1 per 3 μl and 9000.8 per 3 μl; in series [6] (0.25 μM), 6668.9 per 3 μl and 6336.3 per 3 μl and 6995.5 per 3 μl; in [6] (2.5 μM), 1329.8 per 3 μl and 1198.3 per 3 μl and 1275.7 per 3 μl; in series [6] (25 μM), 0 per 3 μl and 0.0 per 3 μl. In series [6] (Human gammaherpesvirus 8, BCBL1), this compound showed a pIC50 of 5.96. Moreover, the “Toxicity Values, % cell control” value is listed as 83.9% in series [7] (0.08 μM); 90.1% in series [7] (0.25 μM); 82.8% in [7] (0.8 μM); 75.0% in [7] (2.5 μM); 69.3% in [7] (8 μM); 4403% in series [7] (25 μM). Besides, the “Toxicity Values, average” value worked out at 0.814 in series [7] (0.08 μM); 0.874 in series [7] (0.25 μM); 0.803 in series [7] (0.8 μM); 0.728 in series [7] (2.5 μM); 0.672 in [7] (8 μM); 0.430 in series [7] (25 μM). Also, the “Toxicity Values, samples 1-3” value in series [7] (0.08 μM) was 0.864 and 0.797 and 0.780; in [7] (0.25 μM), 0.867 and 0.819 and 0.934; in series [7] (0.8 μM), 0.824 and 0.770 and 0.814; in series [7] (2.5 μM), 0.794 and 0.684 and 0.704; in [7] (8 μM), 0.639 and 0.700 and 0.677; in series [7] (25 μM), 0.443 and 0.398 and 0.447.

For `Cl.c1csc(-c2nc3ncccc3[nH]2)c1` [2-(2-thienyl)-imidazolo [4,5-b]pyridine hydrochloride salt], the “Protease Inhibition, mean” value in [8] (1 nM) came to 26.3; in series [8] (10 nM), 35.0; in series [8] (100 nM), 84.8; in series [8] (1000 nM), 247.3. The “Protease Inhibition, sample reading” value in [8] (1 nM) is 29.9 and 22.6; in series [8] (10 nM), 36.0 and 34.1; in [8] (100 nM), 85.4 and 84.2; in [8] (1000 nM) it was 245.7 and 248.8. In series [9], the pEC50 is below 3.38. For the same compound, the “HIV-1 Integrase Inhibition, mean” value in series [9] (0.1 μg/ml) is recorded as 9144; in series [9] (1 μg/ml) it was 12194; in [9] (10 μg/ml), 12299; in series [9] (100 μg/ml), 10570. Also, the “HIV-1 Integrase Inhibition, sample reading” value in series [9] (0.1 μg/ml) was 9338.5 and 8948.8; in series [9] (1 μg/ml) it was 11838.2 and 12550.7; in series [9] (10 μg/ml), 10848.3 and 13750.3; in series [9] (100 μg/ml), 10212.5 and 10928.4.

For “methyl 1,2- benzimidazole carbamate or benomyl”, the MIC data in series [2] worked out at 0.06 µg/mL; in [3], 8 µg/mL. For the same compound, in series [3], the MFC data is above 32 µg/mL.

Regarding `C[C@@H]1[C@H](O)[C@@H](C)/C=C/C=C/C=C/C=C/C=C/C=C/C=C/[C@H](O[C@@H]2O[C@H](C)[C@@H](O)[C@H](N)[C@@H]2O)C[C@@H]2O[C@](O)(C[C@@H](O)C[C@@H](O)[C@H](O)CC[C@@H](O)C[C@@H](O)CC(=O)O[C@H]1C)C[C@H](O)[C@H]2C(=O)O` [AmB, amphotericin B], in series [2], the MIC data amounted to 0.03 µg/mL (≈ 0.0325 µM). In series [3], the MFC data was determined as 1 µg/mL (≈ 1.08 µM) and the MIC data turned out to be 0.25 µg/mL (≈ 0.271 µM).

In the case of `CCC(C)n1ncn(-c2ccc(N3CCN(c4ccc(OCC5COC(Cn6cncn6)(c6ccc(Cl)cc6Cl)O5)cc4)CC3)cc2)c1=O` (stereo not shown) [Itra, Itraconazole], in [2], the MIC was found to be 0.03 µg/mL (≈ 0.0425 µM). Besides, in [3], the MFC is above 32 µg/mL and 0.03 µg/mL (≈ 0.0425 µM) was the least that counted as inhibitory (MIC).
